According to patent publication US7351709B2, “Estrogen receptor ligands” (Wyeth, priority 2004, dated 2008):

Legend:
[1] = biological target: T1, ERα (Homo sapiens, UniProt P03372); experiment: Creatine kinase (CK) assay in ERα infected HAECT-1 cells; format: cell-based; conditions: for EC50: Ad5-wt-ER infected HAECT-1 cells, creatine kinase in cell lysate; for ER/CK % E2: efficacy relative to the maximal stimulation observed with E2
T1 construct: expressed in transfected cells; host or cells: HAECT-1 cells infected with Ad5-wt-ER adenovirus
T1 sequence (P03372 1-595): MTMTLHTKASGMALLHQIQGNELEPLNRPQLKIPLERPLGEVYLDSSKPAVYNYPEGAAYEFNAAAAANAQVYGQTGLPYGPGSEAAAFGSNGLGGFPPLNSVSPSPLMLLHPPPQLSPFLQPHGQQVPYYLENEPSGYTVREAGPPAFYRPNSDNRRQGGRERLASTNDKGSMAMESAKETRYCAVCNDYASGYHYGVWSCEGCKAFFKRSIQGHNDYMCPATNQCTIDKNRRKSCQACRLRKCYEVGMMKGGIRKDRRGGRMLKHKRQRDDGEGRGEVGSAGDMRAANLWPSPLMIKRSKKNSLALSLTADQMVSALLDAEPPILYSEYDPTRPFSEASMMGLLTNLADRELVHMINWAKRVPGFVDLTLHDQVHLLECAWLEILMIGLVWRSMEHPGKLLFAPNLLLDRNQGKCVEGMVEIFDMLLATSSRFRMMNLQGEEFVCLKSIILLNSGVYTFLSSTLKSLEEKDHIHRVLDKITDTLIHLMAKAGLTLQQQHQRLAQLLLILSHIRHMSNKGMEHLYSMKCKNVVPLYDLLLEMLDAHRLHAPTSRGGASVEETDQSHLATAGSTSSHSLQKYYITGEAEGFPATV
Method: (§1) ERα infected HAECT-1 cells or control cells were thawed, diluted 42× in warm EBM-BSA, plated into 96-well plates at 0.1 ml/well and incubated for 4 h at 34° C. Test compounds were added to the cells as 2× stocks in EBM-BSA containing 2 ng/ml IL-1β (R&D Systems) and plates were returned to the incubator (34° C.). After 15-20 h, 100 μl aliquots of media were removed from the cells and assayed for IL-6 content using a BioSource human IL-6 ELISA Kit. Cells were subsequently washed with 300 μl of Dulbecco's phosphate buffered saline and lysed in 50 μl of Cell Culture Lysis Reagent (Promega). Creatine kinase was determined from the rate of increase in A340 following addition of 100 μl of CK assay reagent (Sigma, cat. No 47-10) to the remainder of the cell lysate.
(§2) For IC50 and EC50 calculations, mean IL-6 or CK values versus log10 of the compound concentration were fitted to a four parameter logistic equation. The IC50/EC50 value, ‘Hill slope’, upper and lower limits of the curve were iteratively estimated.

[2] = biological target: T1, ERα; experiment: IL-6 assay: inhibition of IL-1β induced IL-6 expression in ERα infected HAECT-1 cells; format: cell-based; conditions: for IC50: Ad5-wt-ER infected HAECT-1 cells, IL-1β stimulated, IL-6 by ELISA; for ER/IL-6 % E2: efficacy relative to the maximal inhibition observed with E2
Method: as §1, §2

EC50 [1] [µM]	ER/CK % E2 [1] [% E2]	IC50 [2] [µM]	ER/IL-6 % E2 [2] [% E2]	Compound
0.126	19	0.52	57	CC[C@@H]1C(=O)N(C)c2cc(F)ccc2N1C(=O)c1cccc(O)c1 [Example 4, (3R)-3-Ethyl-7-fluoro-4-(3-hydroxybenzoyl)-1-methyl-3,4-dihydroquinoxalin-2(1H)-one]
		0.296	92	CC[C@H]1C(=O)N(C)c2ccc(C)cc2N1S(=O)(=O)c1ccc(O)cc1 [Example 28, (3S)-3-Ethyl-4-[(4-hydroxyphenyl)sulfonyl]-1,6-dimethyl-3,4-dihydroquinoxalin-2(1H)-one]
		0.089	102	CCCCCN1C(=O)[C@@H](CC)N(C(=O)c2ccc(O)cc2)c2cc(F)ccc21 [Example 13, (3R)-3-Ethyl-6-fluoro-4-(4-hydroxybenzoyl)-1-pentyl-3,4-dihydroquinoxalin-2(1H)-one]
0.103	29	0.072	104	CC[C@@H]1C(=O)N(CC)c2cc(F)ccc2N1C(=O)c1ccc(O)cc1 [Example 3, (3R)-1,3-Diethyl-7-fluoro-4-(4-hydroxybenzoyl)-3,4-dihydroquinoxalin-2(1H)-one]
		0.157	79	CCCN1C(=O)[C@H](CC)N(S(=O)(=O)c2ccc(O)cc2)c2cc(F)ccc21 [Example 20, (3S)-3-Ethyl-6-fluoro-4-[(4-hydroxyphenyl)sulfonyl]-1-propyl-3,4-dihydroquinoxalin-2(1H)-one]
0.043	9	0.738	63	CC[C@H]1C(=O)N(CC)c2cc(F)ccc2N1S(=O)(=O)c1ccc(O)cc1 [Example 30, (3S)-1,3-Diethyl-7-fluoro-4-[(4-hydroxyphenyl)sulfonyl]-3,4-dihydroquinoxalin-2(1H)-one]
		0.262	87	CC[C@@H]1C(=O)N(CC(C)C)c2ccc(F)cc2N1C(=O)c1ccc(O)cc1 [Example 14, (3R)-3-Ethyl-6-fluoro-4-(4-hydroxybenzoyl)-1-isobutyl-3,4-dihydroquinoxalin-2(1H)-one]
		0.413	92	CC[C@H]1C(=O)N(CC)c2ccc(Br)cc2N1S(=O)(=O)c1ccc(O)cc1 [Example 33, (3S)-6-bromo-1,3-diethyl-4-[(4-hydroxyphenyl)sulfonyl]-3,4-dihydroquinoxalin-2(1H)-one]
0.089	16	0.074	99	CC[C@@H]1C(=O)N(C)c2cc(F)ccc2N1C(=O)c1ccc(O)cc1 [Example 1, (3R)-3-Ethyl-7-fluoro-4-(4-hydroxybenzoyl)-1-methyl-3,4-dihydroquinoxalin-2(1H)-one]
		0.285	44	CC[C@H]1C(=O)N(CC)c2ccc(F)cc2N1C(=O)c1ccc(O)cc1 [Example 6, (3S)-1,3-Diethyl-6-fluoro-4-(4-hydroxybenzoyl)-3,4-dihydroquinoxalin-2(1H)-one]
		0.445	96	CC[C@@H]1C(=O)N(C2CCCC2)c2ccc(F)cc2N1C(=O)c1ccc(O)cc1 [Example 17, (3R)-1-Cyclopentyl-3-ethyl-6-fluoro-4-(4-hydroxybenzoyl)-3,4-dihydroquinoxalin-2(1H)-one]
		1.57	71	CC[C@H]1C(=O)N(CC)c2cc(Br)ccc2N1S(=O)(=O)c1ccc(O)cc1 [Example 31, (3S)-7-Bromo-1,3-diethyl-4-[(4-hydroxyphenyl)sulfonyl]-3,4-dihydroquinoxalin-2(1H)-one]
		0.181	56	CCN1C(=O)[C@H](C)N(S(=O)(=O)c2ccc(O)cc2)c2cc(F)ccc21 [Example 21, (3S)-1-Ethyl-6-fluoro-4-[(4-hydroxyphenyl)sulfonyl]-3-methyl-3,4-dihydroquinoxalin-2(1H)-one]
		0.204	83	CC[C@@H]1C(=O)N(CC(F)(F)F)c2ccc(F)cc2N1C(=O)c1ccc(O)cc1 [Example 16, (3R)-3-Ethyl-6-fluoro-4-(4-hydroxybenzoyl)-1-(2,2,2-trifluoroethyl)-3,4-dihydroquinoxalin-2(1H)-one]
		0.313	106	CCCCN1C(=O)[C@H](CC)N(S(=O)(=O)c2ccc(O)cc2)c2cc(F)ccc21 [Example 23, (3S)-1-Butyl-3-ethyl-6-fluoro-4-[(4-hydroxyphenyl)sulfonyl]-3,4-dihydroquinoxalin-2(1H)-one]
		0.105	91	CC[C@@H]1C(=O)N(C(C)C)c2ccc(F)cc2N1C(=O)c1ccc(O)cc1 [Example 11, (3R)-3-Ethyl-6-fluoro-4-(4-hydroxybenzoyl)-1-isopropyl-3,4-dihydroquinoxalin-2(1H)-one]
		0.222	96	CCCN1C(=O)[C@@H](CC)N(C(=O)c2ccc(O)cc2)c2cc(F)ccc21 [Example 9, (3R)-3-Ethyl-6-fluoro-4-(4-hydroxybenzoyl)-1-propyl-3,4-dihydroquinoxalin-2(1H)-one]
		0.447	63	CC[C@H]1C(=O)N(CC)c2ccc(C)cc2N1S(=O)(=O)c1ccc(O)cc1 [Example 27, (3S)-1,3-diethyl-4-[(4-hydroxyphenyl)sulfonyl]-6-methyl-3,4-dihydroquinoxalin-2(1H)-one]
		0.258	128	CC[C@H]1C(=O)N(C)c2ccc(Br)cc2N1S(=O)(=O)c1ccc(O)cc1 [Example 34, (3S)-6-bromo-3-ethyl-4-[(4-hydroxyphenyl)sulfonyl]-1-methyl-3,4-dihydroquinoxalin-2(1H)-one]
		0.139	99	CC[C@@H]1C(=O)N(CC)c2ccc(F)cc2N1C(=O)c1ccc(O)cc1 [Example 8, (3R)-1,3-Diethyl-6-fluoro-4-(4-hydroxybenzoyl)-3,4-dihydroquinoxalin-2(1H)-one]
		5.6	55	C=CCN1C(=O)[C@H](CC)N(S(=O)(=O)c2ccc(O)cc2)c2cc(F)ccc21 [Example 22, (3S)-1-Allyl-3-ethyl-6-fluoro-4-[(4-hydroxyphenyl)sulfonyl]-3,4-dihydroquinoxalin-2(1H)-one]
		0.429	90	CC[C@H]1C(=O)N(C)c2cc(Br)ccc2N1S(=O)(=O)c1ccc(O)cc1 [Example 32, (3S)-7-bromo-3-ethyl-4-[(4-hydroxyphenyl)sulfonyl]-1-methyl-3,4-dihydroquinoxalin-2(1H)-one]
		0.534	40	CC[C@H]1C(=O)N(Cc2ccccc2)c2ccc(F)cc2N1S(=O)(=O)c1ccc(O)cc1 [Example 24, (3S)-1-benzyl-3-ethyl-6-fluoro-4-[(4-hydroxyphenyl)sulfonyl]-3,4-dihydroquinoxalin-2(1H)-one]
		0.102	84	CC[C@@H]1C(=O)N(C)c2ccc(F)cc2N1C(=O)c1ccc(O)cc1 [Example 15, (3R)-3-Ethyl-6-fluoro-4-(4-hydroxybenzoyl)-1-methyl-3,4-dihydroquinoxalin-2(1H)-one]
		0.303	44	CC[C@H]1C(=O)N(C)c2ccc(F)cc2N1C(=O)c1ccc(O)cc1 [Example 7, (3S)-3-Ethyl-6-fluoro-4-(4-hydroxybenzoyl)-1-methyl-3,4-dihydroquinoxalin-2(1H)-one]
		0.052	95	CCCCN1C(=O)[C@@H](CC)N(C(=O)c2ccc(O)cc2)c2cc(F)ccc21 [Example 12, (3R)-1-Butyl-3-ethyl-6-fluoro-4-(4-hydroxybenzoyl)-3,4-dihydroquinoxalin-2(1H)-one]
		0.057	95	C=CCN1C(=O)[C@@H](CC)N(C(=O)c2ccc(O)cc2)c2cc(F)ccc21 [Example 10, (3R)-1-Allyl-3-ethyl-6-fluoro-4-(4-hydroxybenzoyl)-3,4-dihydroquinoxalin-2(1H)-one]
